Laboratory results reported in patent publication US12264156B2, “Compounds and pharmaceutical compositions thereof for the treatment of diseases” (GALAPAGOS NV, priority 2018, dated 2025).

Experiments:
Assay type in all cases: biochemical
Settings in all cases: ADP-Glo SIK kinase assay
SIK3 = molecular target: T1, SIK3 (Homo sapiens, UniProt Q9Y2K2); test: ADP-Glo kinase assay, SIK3
T1 construct: purchased SignalChem S12-11G-100
Protocol: (§1) The ADP-Glo™ kinase assay is a luminescent technology assay which measures the ADP formed from a kinase reaction. […] In a second step the kinase reactions are terminated and all the remaining ATP is depleted. In a final step the ADP is converted into ATP and this newly synthesized ATP is measured by using a luciferase/luciferin reaction. The generated light is measured using an Envision plate reader, wherein the luminescent signal obtained positively correlates with the kinase activity.
(§2) 1% DMSO and 10 μM staurosporine final concentrations are used as negative and positive controls.
(§3) 2 μL enzyme-substrate mixture is added to the assay plates.
(§4) The reaction is started by adding 2 μL diluted ATP on the assay plates. Plates are centrifuged for a few seconds at 1000 rpm and gently shaken for 2 min followed by an incubation at RT for 120 min.
(§5) The reactions are stopped and the unconsumed ATP is depleted by adding 5 μL ADP-Glo Reagent (Promega, Cat #V912B) to the reaction. The plates are centrifuged for a few seconds at 1000 rpm and incubated at RT for 40 min (ATP depletion).
(§6) The ADP is converted to ATP and luciferase and luciferin is introduced to detect ATP by adding 10 μL Kinase Detection Reagent (Promega, Cat #V913B+V914B) to the reaction. The plates are centrifuged for a few seconds at 1000 rpm and incubated at RT for 30 min (ADP detection).
(§7) Luminescence is measured on an Envision plate reader (PerkinElmer Inc.).

SIK1 = molecular target: T2, SIK1 (Homo sapiens, UniProt P57059); test: ADP-Glo kinase assay, SIK1
T2 construct: purchased Carna Biosciences 02-131
Protocol: as §1, §2, §3, §4, §5, §6, §7

SIK2 = molecular target: T3, SIK2 (Homo sapiens, UniProt Q9H0K1); test: ADP-Glo kinase assay, SIK2
T3 construct: purchased ThermoFisher Scientific PV4792
Protocol: as §1, §2, §3, §4, §5, §6, §7

T1 sequence (Q9Y2K2 whole entry): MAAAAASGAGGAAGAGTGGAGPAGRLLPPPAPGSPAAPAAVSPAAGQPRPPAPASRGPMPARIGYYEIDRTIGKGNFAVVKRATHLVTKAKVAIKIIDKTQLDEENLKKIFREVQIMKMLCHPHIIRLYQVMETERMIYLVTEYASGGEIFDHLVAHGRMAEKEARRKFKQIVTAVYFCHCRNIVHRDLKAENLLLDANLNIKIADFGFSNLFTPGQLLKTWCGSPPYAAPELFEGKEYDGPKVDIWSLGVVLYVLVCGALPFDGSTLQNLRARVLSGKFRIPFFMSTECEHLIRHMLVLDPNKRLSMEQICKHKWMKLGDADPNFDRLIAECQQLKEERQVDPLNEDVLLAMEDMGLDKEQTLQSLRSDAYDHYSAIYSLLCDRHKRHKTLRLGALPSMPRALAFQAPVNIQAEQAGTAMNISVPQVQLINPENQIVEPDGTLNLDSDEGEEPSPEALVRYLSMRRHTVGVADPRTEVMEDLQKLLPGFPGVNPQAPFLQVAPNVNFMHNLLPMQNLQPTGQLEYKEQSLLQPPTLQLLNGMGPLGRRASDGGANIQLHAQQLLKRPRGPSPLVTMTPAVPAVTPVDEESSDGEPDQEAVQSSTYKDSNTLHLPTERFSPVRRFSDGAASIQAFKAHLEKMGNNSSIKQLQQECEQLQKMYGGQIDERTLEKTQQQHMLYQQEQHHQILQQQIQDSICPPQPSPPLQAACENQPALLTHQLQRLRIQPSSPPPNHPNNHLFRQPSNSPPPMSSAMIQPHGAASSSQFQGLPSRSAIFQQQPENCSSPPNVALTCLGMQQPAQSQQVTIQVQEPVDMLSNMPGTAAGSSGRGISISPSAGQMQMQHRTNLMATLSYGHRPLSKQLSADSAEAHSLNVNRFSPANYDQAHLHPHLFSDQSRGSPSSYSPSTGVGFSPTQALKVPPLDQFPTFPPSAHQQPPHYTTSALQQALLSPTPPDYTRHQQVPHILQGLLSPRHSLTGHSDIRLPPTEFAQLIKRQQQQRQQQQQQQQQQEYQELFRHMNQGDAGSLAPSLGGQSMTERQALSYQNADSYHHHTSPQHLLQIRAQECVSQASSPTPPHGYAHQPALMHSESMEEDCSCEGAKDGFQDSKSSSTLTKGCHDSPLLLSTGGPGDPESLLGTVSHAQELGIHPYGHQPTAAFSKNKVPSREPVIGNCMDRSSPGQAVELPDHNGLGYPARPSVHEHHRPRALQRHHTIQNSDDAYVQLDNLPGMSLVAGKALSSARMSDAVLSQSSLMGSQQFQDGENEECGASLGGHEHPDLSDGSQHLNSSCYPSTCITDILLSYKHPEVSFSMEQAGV
T2 sequence (P57059 whole entry): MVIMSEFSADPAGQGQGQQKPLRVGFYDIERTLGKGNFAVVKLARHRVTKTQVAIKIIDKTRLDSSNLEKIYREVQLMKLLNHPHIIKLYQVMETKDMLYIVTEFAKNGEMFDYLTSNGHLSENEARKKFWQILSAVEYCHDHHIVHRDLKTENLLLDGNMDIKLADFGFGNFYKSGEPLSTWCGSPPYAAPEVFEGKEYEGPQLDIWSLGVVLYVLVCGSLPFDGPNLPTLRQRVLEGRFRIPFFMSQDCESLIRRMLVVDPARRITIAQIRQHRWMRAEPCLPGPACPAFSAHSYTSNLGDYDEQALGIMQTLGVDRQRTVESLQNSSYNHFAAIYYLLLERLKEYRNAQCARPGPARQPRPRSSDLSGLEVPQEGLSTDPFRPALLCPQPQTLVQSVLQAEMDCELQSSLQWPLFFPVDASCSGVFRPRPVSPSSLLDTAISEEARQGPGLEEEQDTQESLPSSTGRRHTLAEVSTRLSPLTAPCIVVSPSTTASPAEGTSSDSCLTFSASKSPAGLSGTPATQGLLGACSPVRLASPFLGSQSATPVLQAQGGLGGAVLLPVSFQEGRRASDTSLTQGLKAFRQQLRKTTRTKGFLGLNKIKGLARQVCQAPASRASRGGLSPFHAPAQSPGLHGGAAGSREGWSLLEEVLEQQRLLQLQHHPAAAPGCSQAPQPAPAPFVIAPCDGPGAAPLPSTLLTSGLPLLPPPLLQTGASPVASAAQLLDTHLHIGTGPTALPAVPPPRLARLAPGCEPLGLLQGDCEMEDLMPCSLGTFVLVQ
T3 sequence (Q9H0K1 whole entry): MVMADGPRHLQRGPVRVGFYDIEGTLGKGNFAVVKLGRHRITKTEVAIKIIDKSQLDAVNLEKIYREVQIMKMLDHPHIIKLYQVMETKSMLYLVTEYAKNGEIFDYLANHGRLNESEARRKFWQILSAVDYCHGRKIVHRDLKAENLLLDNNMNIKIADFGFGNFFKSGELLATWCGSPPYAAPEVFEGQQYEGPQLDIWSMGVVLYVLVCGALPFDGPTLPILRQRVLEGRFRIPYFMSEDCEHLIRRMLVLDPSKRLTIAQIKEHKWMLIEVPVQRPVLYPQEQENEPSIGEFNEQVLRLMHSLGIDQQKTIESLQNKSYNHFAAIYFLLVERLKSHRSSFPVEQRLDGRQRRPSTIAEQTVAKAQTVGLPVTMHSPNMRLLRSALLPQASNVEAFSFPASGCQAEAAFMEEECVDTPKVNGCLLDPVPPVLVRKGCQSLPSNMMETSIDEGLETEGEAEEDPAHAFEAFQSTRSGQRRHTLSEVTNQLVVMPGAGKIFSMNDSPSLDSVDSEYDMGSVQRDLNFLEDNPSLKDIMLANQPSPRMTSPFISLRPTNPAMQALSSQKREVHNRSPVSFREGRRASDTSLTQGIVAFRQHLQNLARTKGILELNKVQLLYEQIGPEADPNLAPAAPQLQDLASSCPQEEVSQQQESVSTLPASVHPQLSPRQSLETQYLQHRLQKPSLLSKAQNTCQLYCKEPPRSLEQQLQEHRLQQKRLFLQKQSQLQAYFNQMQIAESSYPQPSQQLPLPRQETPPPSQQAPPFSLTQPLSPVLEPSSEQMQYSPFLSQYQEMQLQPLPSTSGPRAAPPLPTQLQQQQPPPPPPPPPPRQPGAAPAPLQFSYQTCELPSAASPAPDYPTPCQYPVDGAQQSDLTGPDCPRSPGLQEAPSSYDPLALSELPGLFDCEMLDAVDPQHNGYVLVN

IC50 (SIK3) [nM] | IC50 (SIK1) [nM] | IC50 (SIK2) [nM] | SMILES
10 to 100 | 100 to 500 | 10 to 100 | COc1ccn2c(-c3cc4c(c(OC)c3)C(=O)N(CC(F)(F)F)CC4)cnc2c1 [Cpd 256, 8-methoxy-6-(7-methoxyimidazo[1,2-a]pyridin-3-yl)-2-(2,2,2-trifluoroethyl)-3,4-dihydroisoquinolin-1-one]
0.01 to 10 | 100 to 500 | 10 to 100 | COc1cc(-c2cnc3cc(OCCO)ccn23)cc2c1C(=O)N(CC(F)(F)F)CC2 [Cpd 258, 6-[7-(2-hydroxyethoxy)imidazo [1,2-a]pyridin-3-yl]-8-methoxy-2-(2,2,2-trifluoroethyl)-3,4-dihydroisoquinolin-1-one]
10 to 100 | > 500 | > 500 | COCC(C)(C)Oc1ccn2c(-c3cc(OC)c(C(=O)NC4CC4)c(OC(F)F)c3)cnc2c1 [Cpd 260, N-cyclopropyl-2-(difluoromethoxy)-6-methoxy-4-[7-(2-methoxy-1,1-dimethyl-ethoxy)imidazo[1,2-a]pyridin-3-yl]benzamide]
10 to 100 | > 500 | > 500 | COc1cc(-c2cnc3cc(OC(C)(C)C#N)ccn23)cc(OC(F)F)c1C(=O)NC1CC1 [Cpd 263, 4-[7-(1-cyano-1-methyl-ethoxy)imidazo[1,2-a]pyridin-3-yl]-N-cyclopropyl-2-(difluoromethoxy)-6-methoxy-benzamide]
0.01 to 10 | 100 to 500 | 10 to 100 | CCOc1ccn2c(-c3cc4c(c(OC)c3)C(=O)N(CC(F)(F)F)CC4)cnc2c1 [Cpd 264, 6-(7-ethoxyimidazo[1,2-a]pyridin-3-yl)-8-methoxy-2-(2,2,2-trifluoroethyl)-3,4-dihydroisoquinolin-1-one]
> 500 | > 500 | > 500 | O=C1c2ncc(-c3cnc4cc(OCCN5CCOCC5)ccn34)cc2CN1CC(F)(F)F [Cpd 266, 3-[7-(2-morpholinoethoxy)imidazo [1,2-a]pyridin-3-yl]-6-(2,2,2-trifluoroethyl)-5H-pyrrolo[3,4-b]pyridin-7-one]
0.01 to 10 | 10 to 100 | 0.01 to 10 | COc1cc(-c2cnc3cc(OCCCOC(C)=O)ccn23)cc(OC(F)F)c1C(=O)NC1CC1 [Cpd 282, 3-[3-[4-(cyclopropylcarbamoyl)-3-(difluoromethoxy)-5-methoxy-phenyl]imidazo[1,2-a]pyridin-7-yl]oxypropyl acetate]
0.01 to 10 | 10 to 100 | 0.01 to 10 | COc1cc(-c2cnc3cc(OC[C@H]4CCNC4)ccn23)cc(OC(F)F)c1C(=O)NC1CC1 [Cpd 314, N-cyclopropyl-2-(difluoromethoxy)-6-methoxy-4-[7-[[(3S)-pyrrolidin-3-yl]methoxy]imidazo[1,2-a]pyridin-3-yl]benzamide]
0.01 to 10 | 10 to 100 | 0.01 to 10 | COc1cc(-c2cnc3cc(OCCCOS(C)(=O)=O)ccn23)cc(OC(F)F)c1C(=O)NC1CC1 [Cpd 333, 3-[3-[4-(cyclopropylcarbamoyl)-3-(difluoromethoxy)-5-methoxy-phenyl]imidazo[1,2-a]pyridin-7-yl]oxypropyl methanesulfonate]
0.01 to 10 | 10 to 100 | 0.01 to 10 | COc1cc(-c2cnc3cc(OC[C@H]4CCCN(CCO)C4)ccn23)cc(OC(F)F)c1C(=O)NC1CC1 [Cpd 340, N-cyclopropyl-2-(difluoromethoxy)-4-[7-[[(3S)-1-(2-hydroxyethyl)-3-piperidyl]methoxy]imidazo [1,2-a]pyridin-3-yl]-6-methoxy-benzamide]
0.01 to 10 | 10 to 100 | 0.01 to 10 | COc1cc(-c2cnc3cc(OC[C@H]4CCN(CCO)C4)ccn23)cc(OC(F)F)c1C(=O)NC1CC1 [Cpd 341, N-cyclopropyl-2-(difluoromethoxy)-4-[7-[[(3S)-1-(2-hydroxyethyl)pyrrolidin-3-yl]methoxy]imidazo[1,2-a]pyridin-3-yl]-6-methoxy-benzamide]
0.01 to 10 | 10 to 100 | 0.01 to 10 | COc1cc(-c2cnc3cc(OCC4CN(CC(C)(C)O)C4)ccn23)cc(OC(F)F)c1C(=O)NC1CC1 [Cpd 342, N-cyclopropyl-2-(difluoromethoxy)-4-[7-[[1-(2-hydroxy-2-methyl-propyl)azetidin-3-yl]methoxy]imidazo[1,2-a]pyridin-3-yl]-6-methoxy-benzamide]
0.01 to 10 | 10 to 100 | 0.01 to 10 | COc1cc(-c2cnc3cc(OCC4CN(CCO)C4)ccn23)cc(OC(F)F)c1C(=O)NC1CC1 [Cpd 343, N-cyclopropyl-2-(difluoromethoxy)-4-[7-[[1-(2-hydroxyethyl)azetidin-3-yl]methoxy]imidazo[1,2-a]pyridin-3-yl]-6-methoxy-benzamide]
0.01 to 10 | 10 to 100 | 0.01 to 10 | COc1cc(-c2cnc3cc(OCCCN4CCCCC4)ccn23)cc(OC(F)F)c1C(=O)N1CC(C#N)C1 [Cpd 357, 1-[2-(difluoromethoxy)-6-methoxy-4-[7-[3-(1-piperidyl)propoxy]imidazo[1,2-a]pyridin-3-yl]benzoyl]azetidine-3-carbonitrile]
0.01 to 10 | 10 to 100 | 0.01 to 10 | COC(=O)NCC(F)(F)COc1ccn2c(-c3cc(OC)c(C(=O)NC4CC4)c(OC(F)F)c3)cnc2c1 [Cpd 365, methyl N-[3-[3-[4-(cyclopropylcarbamoyl)-3-(difluoromethoxy)-5-methoxy-phenyl]imidazo[1,2-a]pyridin-7-yl]oxy-2,2-difluoro-propyl]carbamate]
0.01 to 10 | 10 to 100 | 0.01 to 10 | COc1cc(-c2cnc3cc(OCC4(O)CCN(C(C)C)C4)ccn23)cc(OC(F)F)c1C(=O)NC1CC1 (stereo not drawn) [Cpd 372, N-cyclopropyl-2-(difluoromethoxy)-4-[7-[(3-hydroxy-1-isopropyl-pyrrolidin-3-yl)methoxy]imidazo[1,2-a]pyridin-3-yl]-6-methoxy-benzamide]
10 to 100 | 100 to 500 | 100 to 500 | COc1cc(-c2cnc3cc(OCC(=O)O)ccn23)cc(OC(F)F)c1C(=O)NC1CC1 [Cpd 396, 2-[3-[4-(cyclopropylcarbamoyl)-3-(difluoromethoxy)-5-methoxy-phenyl]imidazo[1,2-a]pyridin-7-yl]oxyacetic acid]
0.01 to 10 | 10 to 100 | 10 to 100 | CCOC(=O)CN1CCCCC1COc1ccn2c(-c3cc(OC)c(C(=O)NC4CC4)c(OC(F)F)c3)cnc2c1 (stereo not drawn) [Cpd 397, ethyl 2-[2-[[3-[4-(cyclopropylcarbamoyl)-3-(difluoromethoxy)-5-methoxy-phenyl]imidazo[1,2-a]pyridin-7-yl]oxymethyl]-1-piperidyl]acetate]
0.01 to 10 | 100 to 500 | 100 to 500 | COc1cc(-c2cnc3cc(OC4CCOCC4)ccn23)cc(OC(F)F)c1C(=O)NC1CC1 [compound 1, N-cyclopropyl-2-(difluoromethoxy)-6-methoxy-4-(7-tetrahydropyran-4-yloxyimidazo[1,2-a]pyridin-3-yl)benzamide]

SMILES | IC50 (SIK3) [nM] | IC50 (SIK1) [nM] | IC50 (SIK2) [nM]
COc1cc(-c2cnc3cc(OC4(C#N)CCCC4)ccn23)cc(OC(F)F)c1C(=O)NC1CC1 [Cpd 255, 4-[7-(1-cyanocyclopentoxy)imidazo[1,2-a]pyridin-3-yl]-N-cyclopropyl-2-(difluoromethoxy)-6-methoxy-benzamide] | 10 to 100 | > 500 | 100 to 500
